# Measurements published in patent publication US4963538A, “5-oxygenated HMG-CoA reductase inhibitors” (Merck & Co., Inc., priority 1989, dated 1990).
# Target: T1, HMG-CoA reductase (Rattus norvegicus, UniProt P51639)
# T1 sequence (P51639 1-887): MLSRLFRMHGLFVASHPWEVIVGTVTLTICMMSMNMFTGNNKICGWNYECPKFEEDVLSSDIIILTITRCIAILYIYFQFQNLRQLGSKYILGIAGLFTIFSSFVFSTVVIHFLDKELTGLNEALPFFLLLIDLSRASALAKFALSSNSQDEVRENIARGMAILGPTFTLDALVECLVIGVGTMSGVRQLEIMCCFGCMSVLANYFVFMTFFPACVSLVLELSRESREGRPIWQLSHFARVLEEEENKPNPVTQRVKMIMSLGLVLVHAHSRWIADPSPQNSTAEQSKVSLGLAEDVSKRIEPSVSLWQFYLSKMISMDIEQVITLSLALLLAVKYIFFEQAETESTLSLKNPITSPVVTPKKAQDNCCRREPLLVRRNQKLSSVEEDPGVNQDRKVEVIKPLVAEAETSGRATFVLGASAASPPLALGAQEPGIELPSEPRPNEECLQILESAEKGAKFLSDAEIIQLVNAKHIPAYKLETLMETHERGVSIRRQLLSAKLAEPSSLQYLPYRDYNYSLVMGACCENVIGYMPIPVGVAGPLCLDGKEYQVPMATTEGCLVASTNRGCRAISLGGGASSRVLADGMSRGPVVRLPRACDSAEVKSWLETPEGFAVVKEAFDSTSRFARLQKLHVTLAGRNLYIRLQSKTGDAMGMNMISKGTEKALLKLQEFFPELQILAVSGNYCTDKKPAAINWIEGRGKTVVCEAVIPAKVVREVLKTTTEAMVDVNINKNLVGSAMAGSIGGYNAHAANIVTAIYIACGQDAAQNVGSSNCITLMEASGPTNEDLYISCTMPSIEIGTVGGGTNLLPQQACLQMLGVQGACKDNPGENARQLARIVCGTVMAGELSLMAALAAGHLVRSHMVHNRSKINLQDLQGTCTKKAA
# Assay: intrinsic HMG-CoA reductase inhibition, in vitro protocol of J. Med. Chem., 28, p. 347-358 (1985)
# Format: biochemical
# Conditions: compactin (mevastatin) assigned 100; IC50 of test compound compared with that of compactin determined simultaneously
# Experimental: The intrinsic HMG-CoA reductase inhibition activity of the claimed compounds is measured in the in vitro protocol published in J. Med. Chem., 28, p. 347-358 (1985).
# For estimation of relative inhibitory potencies, compactin (i.e., mevastatin) was assigned a value of 100 and the IC50 value of the test compound was compared with that of compactin determined simultaneously in the published in vitro protocol.
row,SMILES,Relative Potency
1,"CCC(C)(C)C(=O)O[C@H]1C[C@@H](C)C(=O)[C@@H]2CC[C@H](C)[C@H](CC[C@@H]3C[C@@H](O)CC(=O)O3)[C@@H]12 [6(R)-[2-[8(S)-(2,2-dimethylbutyryloxy)-2(S)-methyl-5-oxo-6(R)-methyl-1,2,3,4,4a(R)-,6,7,8,8a(R)-nonanydronaphthyl-1(S)]ethyl]-4(R)-hydroxy-3,4,5,6-tetrahydro-2H-pyran-2-one]",125
2,"CCC(C)(C)C(=O)O[C@H]1C[C@@H](C)[C@@H](OCCc2ccccc2)[C@@H]2CC[C@H](C)[C@H](CC[C@@H]3C[C@@H](O)CC(=O)O3)[C@H]21 [6(R)-[2-[8(S)-(2,2-dimethylbutyryloxy)-2(S)-methyl-5(R)-(1-phenylethyl-2-oxy)-6(R)-methyl-1,2,3,4,4a(R)-,5,6,7,8, 8a(R)-decahydronaphthyl-1(S)]ethyl]-4(R)-hydroxy-3,4,5,6-tetrahydro-2H-pyran-2-one]",300
3,"CCC(C)(C)C(=O)O[C@H]1C[C@@H](C)[C@@H](O)[C@@H]2CC[C@H](C)[C@H](CC[C@@H]3C[C@@H](O)CC(=O)O3)[C@H]21 [6(R)-[2-[8(S)-(2,2-dimethylbutyryloxy)-2(S)-methyl-5(R)-hydroxy-6(R)-methyl-1,2,3,4,4a(R),6,7,8,8a(R)-decahydronapththyl-1(S)]ethyl]-4(R)-hydroxy-3,4,5,6-tetrahydro-2H-pyran-2-one]",50
4,"CCC(C)(C)C(=O)O[C@H]1C[C@@H](C)[C@@H](OC(=O)NCc2ccccc2)[C@@H]2CC[C@H](C)[C@H](CC[C@@H]3C[C@@H](O)CC(=O)O3)[C@H]21 [6(R)-[2-[8(S) (2,2-dimethylbutyryloxy)-2(S)methyl 5(R)-benzylaminocarbonyloxy-6(R)-methyl-1,2,3,4,4a(R)-,5,6,7,8,8a(R)-decahydronaphthyl-1(S)]ethyl]-4-(R)-hydroxy-3,4,5,6-tetrahydro-2H-pyran-2-one]",360
5,"CCC(C)(C)C(=O)O[C@H]1C[C@H](C)[C@@H](O)[C@@H]2CC[C@H](C)[C@H](CC[C@@H]3C[C@@H](O)CC(=O)O3)[C@H]21 [6(R)-[2-[8(S)-(2,2-dimethylbutyryloxy)-2(S)-methyl-5(R)-hydroxy-6(S)-methyl-1,2,3,4,4a(R)-,6,7,8,8a(R)-decahydronaphthyl-1(S)]ethyl]-4(R)-hydroxy-3,4,5,6-tetrahydro-2H-pyran-2-one]",99.6
6,"CCC(C)(C)C(=O)O[C@H]1C[C@@H](C)[C@@H](OP(=O)(c2ccccc2)c2ccccc2)[C@@H]2CC[C@H](C)[C@H](CC[C@@H]3C[C@@H](O)CC(=O)O3)[C@H]21 [6(R)-[2-[8(S)-(2,2-dimethylbutyryloxy)-2(S)-methyl-5(R)-diphenylphosphinyloxy-6(R)-methyl-1,2,3,4,4a(R),5,6,7,8,8a(R)-decahydronaphthyl-1(S)]ethyl]-4(R)-hydroxy-3,4,5,6-tetrahydro-2H-pyran-2-one]",300
7,"CCC(C)(C)C(=O)O[C@H]1C[C@@H](C)[C@@H](OC(=O)N(Cc2ccccc2)Cc2ccccc2)[C@@H]2CC[C@H](C)[C@H](CC[C@@H]3C[C@@H](O)CC(=O)O3)[C@H]21 [6(R)-[2-[8(S)-(2,2-dimethylbutyryloxyl)-2(S)-methyl-5(R)-dibenzylaminocarbonyloxy-6(R)-methyl-1,2,3,4,4a(R)-,5,6,7,8,8a(R)-decahydronaphthyl-1(S)]ethyl]-4(R)-hydroxy-3,4,5,6-tetrahydro-2H-pyran-2-one]",94
8,"CCC(C)(C)C(=O)O[C@H]1C[C@@H](C)[C@@H](O)[C@@H]2C=C[C@H](C)[C@H](CC[C@@H]3C[C@@H](O)CC(=O)O3)[C@H]21 [6(R)-[2-[8(S)-(2,2-dimethylbutyryloxy)-2(S)-methyl-5(R)-hydroxy-6(R)-methyl-1,2,4a(R),5,6,7,8,8a(R)-octahydronaphthyl-1(S)]ethyl]-4(R)-hydroxy-3,4,5,6-tetrahydro-2H-pyran-2-one]",100
9,"CCC(C)(C)C(=O)O[C@H]1C[C@H](C)[C@H](O)[C@@H]2CC[C@H](C)[C@H](CC[C@@H]3C[C@@H](O)CC(=O)O3)[C@H]21 [6(R)-[2-[8(S)-(2,2-dimethylbutyryloxy)-2(S)-methyl-5(S)-hydroxy-6(S)-methyl-1,2,3,4,4a-(R)-,6,7,8,8a(R)-decahydronaphthyl-1(S)]ethyl]-4(R)-hydroxy-3,4,5,6-tetrahydro-2H-pyran-2-one]",11.1
